Data taken from patent US8562945B2, “Technetium- and rhenium-bis(heteroaryl) complexes and methods of use thereof” (Molecular Insight Pharmaceuticals, Inc., priority 2008, dated 2013).

Tests used:
[1] = Determination of Log P values of 99mTc-SAAC complexes; assay type: physicochemical; details: 99mTc complex; n-octanol / 25 mM pH=7.4 phosphate buffer
Procedure: Determination of Log P Values. The Log P values of the ^99mTc(I)-complexes were determined as follows. The ^99mTc-SAAC complexes were prepared and purified by RP-HPLC. The desired peak was collected and the sample was evaporated under a stream of nitrogen. The residue was dissolved in 25 μL of saline and placed in an equal volume of n-octanol (3 mL) and 25 mM pH=7.4 phosphate buffer (3 mL). The samples were mixed under vortex for 20 min, centrifuged at 8000 rpm for 5 min and three 100 μL aliquots were removed from both the aqueous and the organic layers for analysis on a gamma counter (Wallac 1282). Subsequently, 1 mL of the phosphate bufferTc-complex solution was removed and the process was repeated with fresh n-octanol, for a total number of six extractions to ensure full extraction of all the organic components. The partition coefficients were calculated using the equation: P=(activity concentration in n-octanol)/(activity concentration in aqueous layer). The Log P values reported were calculated from the average of the different measurements.

[2] = Rat tissue distribution of 99mTc complexes of example ligands (Table 6); assay type: in vivo, Sprague-Dawley Rats; details: 99mTc complex
Procedure: Rat Tissue Distribution Studies. The distribution and pharmacokinetics of selected ^99mTc-SAAC complexes were evaluated in normal male Sprague Dawley rats (180-200 grams) administered via the tail vein as a bolus injection (approximately 10 μCi/rat) in a constant volume of 0.1 ml. The animals (n=5 per time point) were euthanized by asphyxiation with carbon dioxide at 5, 30, 60, and 120 min post injection. Tissues (blood, heart, lungs, liver, spleen, kidneys, adrenals, stomach, intestines (with contents), testes, skeletal muscle, bone and brain) were dissected, excised, weighed wet, and counted in an automated γ-counter (LKB Model 1282, Wallac Oy, Finland). Tissue time-radioactivity levels expressed as percent injected dose per gram of tissue (% ID/g) was determined.
^99mTc Complexes of various example ligands in Sprague-Dawley Rats.

[3] = Complex stability: 99mTc cysteine and histidine challenge experiments; assay type: physicochemical; details: for time stable to excess histidine and cysteine challenges: 99mTc-SAAC complex, 37° C.
Procedure: 3. Tc-99m labeling. [^99mTc(CO)3(H2O)3]^+ was heated with [8-{N,N-di(pyridyl-2-methyl)}α-(fmoc)lysine] (DpK) in 0.5 mL (1 mg/mL) of methanol at 100° C. for 30 minutes. […] Labeling yields of >50% RCY, were achievable at levels as low as 2 μg/mL.
Complex stability: ^99mTc challenge experiments. The complexes were analyzed by HPLC for stability against cysteine and histidine challenge over time.

[4] = Normal rat tissue distribution studies of 99mTc-SAAC complexes (Table 5); assay type: in vivo, male Sprague Dawley rats; details: tail vein, average ± SEM
Procedure: Normal Rat Tissue Distribution Studies. Normal rat tissue distribution studies were performed with [^99mTc(CO)3{η^3-(DpK)}], [Tc(CO)3{η^3-(DTK)}] and [Tc(CO)3{η^3-(PAMAK)}] in groups of male Sprague Dawley rats (n=4/group, 180-200 grams each) at 5, 30, 60, and 120 minutes post injection. The compounds were injected via the tail vein in saline (10 μCi/100 μl). […] All three SAAC ligands had very high accumulation and retention in the gastrointestinal (GI) tract. […] The design of hydrophilic SAAC ligands may alter the pharmacokinetics by mitigating the lipophilicity of the complex and potentially favoring renal, over liver and GI clearance. Such a result may facilitate the development of clinically relevant molecular imaging radiopharmaceuticals with desirable pharmacokinetic properties.

CA-II = CA-II (Homo sapiens (Human), UniProt P00918); assay: Inhibition of carbonic anhydrase enzyme activity (4-nitrophenyl acetate hydrolysis), CA-II; assay type: biochemical; details: purified human enzyme, pH 7.4, 25° C.
Procedure: (§1) Selective Inhibition of Carbonic Anhydrase Enzyme Activity. Compounds were tested for their ability to inhibit carbonic anhydrase isozymes II and IX in vitro. Purified human enzymes were from R&D Systems (Minneapolis, Minn.). The inhibition constants (Ki) for CA-II and CA-IX were determined by the method of Pocker and Stone. Initial rates of 4-nitrophenyl acetate hydrolysis catalyzed by the different carbonic anhydrase isozymes were measured spectrophotometrically at 400 nm. Solutions of substrate (1×10^−2 to 1×10^−6 M) were prepared in anhydrous acetonitrile. A molar extinction coefficient of 18,000 M^−1·cm^−1 was used for the 4-nitrophenolate formed by hydrolysis under the conditions of the experiment (9 mM Tris-HCl, 81 mM NaCl, pH 7.4, 25° C.). The enzyme concentrations were 100 nM for CA-IX and 30 nM for CA-II. Non-enzymatic hydrolysis rates, determined in the absence of added enzyme, were subtracted from the observed rates. […] Dilutions of inhibitor were added to enzyme solutions and preincubated for 10 min to allow for the formation of the E-I complex prior to the addition of substrate. Acetazolamide was included in all assays as positive controls.

CA-IX = CA-IX (Homo sapiens (Human), UniProt Q16790); assay: Inhibition of carbonic anhydrase enzyme activity (4-nitrophenyl acetate hydrolysis), CA-IX; assay type: biochemical; details: purified human enzyme, pH 7.4, 25° C.
Procedure: as §1

Molecule	Log P [1]	Blood tissue distribution ([2]; 5 min)	Blood tissue distribution ([2]; 30 min)	Blood tissue distribution ([2]; 60 min)	Blood tissue distribution ([2]; 120 min)	GI tissue distribution ([2]; 5 min)	GI tissue distribution ([2]; 30 min)	GI tissue distribution ([2]; 60 min)	GI tissue distribution ([2]; 120 min)	Kidney tissue distribution ([2]; 5 min)	Kidney tissue distribution ([2]; 30 min)	Kidney tissue distribution ([2]; 60 min)	Kidney tissue distribution ([2]; 120 min)	Liver tissue distribution ([2]; 5 min)	Liver tissue distribution ([2]; 30 min)	Liver tissue distribution ([2]; 60 min)	Liver tissue distribution ([2]; 120 min)	Sk. Muscle tissue distribution ([2]; 5 min)	Sk. Muscle tissue distribution ([2]; 30 min)	Sk. Muscle tissue distribution ([2]; 60 min)	other results
NC(CCCCN1CC(=O)[O][Tc-][O]C(=O)C1)C(=O)O.[C-]#[O+].[C-]#[O+].[C-]#[O+] (centres unmarked) [Compound 7-Tc]	−2.20	–	–	–	–	–	–	–	–	–	–	–	–	–	–	–	–	–	–	–	–
N[C@@H](CCCCN(Cc1nccs1)Cc1nccs1)C(=O)O [DtK, (dithiazole)lysine]	−2.40	3.32 ± 0.82 % ID/g	2.33 ± 0.26 % ID/g	1.4 ± 0.07 % ID/g	0.76 ± 0.12 % ID/g	0.3 ± 0.15 % ID/g	0.59 ± 0.13 % ID/g	0.73 ± 0.29 % ID/g	0.87 ± 0.2 % ID/g	3.26 ± 1.04 % ID/g	4.71 ± 0.41 % ID/g	4.78 ± 0.14 % ID/g	4.83 ± 0.41 % ID/g	1.7 ± 0.42 % ID/g	1.93 ± 0.15 % ID/g	2.05 ± .041 % ID/g	2.61 ± 0.31 % ID/g	0.16 ± 0.05 % ID/g	0.16 ± 0.01 % ID/g	0.15 ± 0.02 % ID/g	Sk. Muscle tissue distribution ([2]; 120 min): 0.12 ± 0.01 % ID/g; time stable to excess histidine and cysteine challenges [3]: more than 18 hours
[^99mTc(CO)3(DPK)]	–	–	–	–	–	–	–	–	–	–	–	–	–	–	–	–	–	–	–	–	Blood tissue distribution ([4]; 5 Min post injection): 7.01 ± 1.38 % ID/g; Blood tissue distribution ([4]; 30 Min. post injection): 1.12 ± 0.31 % ID/g; Blood tissue distribution ([4]; 60 Min. post injection): 0.39 ± 0.16 % ID/g; Blood tissue distribution ([4]; 120 Min post injection): 0.18 ± 0.01 % ID/g; GI tissue distribution ([4]; 5 Min post injection): 4.65 ± 1.78 % ID/g; GI tissue distribution ([4]; 30 Min. post injection): 15.01 ± 1.82 % ID/g; GI tissue distribution ([4]; 60 Min. post injection): 24.46 ± 6.20 % ID/g; GI tissue distribution ([4]; 120 Min post injection): 38.90 ± 5.94 % ID/g; Kidney tissue distribution ([4]; 5 Min post injection): 8.88 ± 3.20 % ID/g; Kidney tissue distribution ([4]; 30 Min. post injection): 9.72 ± 0.68 % ID/g; Kidney tissue distribution ([4]; 60 Min. post injection): 9.47 ± 1.23 % ID/g; Kidney tissue distribution ([4]; 120 Min post injection): 7.08 ± 1.58 % ID/g; Liver tissue distribution ([4]; 5 Min post injection): 16.28 ± 5.12 % ID/g; Liver tissue distribution ([4]; 30 Min. post injection): 26.03 ± 1.50 % ID/g; Liver tissue distribution ([4]; 60 Min. post injection): 22.71 ± 1.14 % ID/g; Liver tissue distribution ([4]; 120 Min post injection): 14.44 ± 2.75 % ID/g
[Re(CO)3][2-((pyridin-2-ylmethyl)(4-sulfamoylphenethyl)amino)acetic acid] [Compound 23-Re]	–	–	–	–	–	–	–	–	–	–	–	–	–	–	–	–	–	–	–	–	IC50 (CA-II): 652 nM; IC50 (CA-IX): 564 nM
N[C@@H](CCCCN(Cc1ccccn1)Cc1ccccn1)C(=O)O [DpK, [ε-{N,N-di(pyridyl-2-methyl)}α-lysine], reference compound]	−1.89	0.58 ± 0.05 % ID/g	0.07 ± 0.01 % ID/g	0.03 ± 0.01 % ID/g	0.01 ± 0.00 % ID/g	0.49 ± 0.08 % ID/g	0.89 ± 0.07 % ID/g	1.46 ± 0.09 % ID/g	2.73 ± 0.57 % ID/g	6.05 ± 1.03 % ID/g	4.94 ± 0.11 % ID/g	4.93 ± 0.43 % ID/g	3.89 ± .042 % ID/g	3.36 ± 0.44 % ID/g	2.75 ± .011 % ID/g	2.59 ± 0.08 % ID/g	2.20 ± 0.06 % ID/g	0.18 ± 0.02 % ID/g	0.03 ± 0.00 % ID/g	0.03 ± 0.01 % ID/g	Sk. Muscle tissue distribution ([2]; 120 min): 0.01 ± 0.00 % ID/g; degradation by HPLC after cysteine or histidine challenge ([3]; 100 mM cysteine or histidine in PBS pH 7.2, 37° C., 18 h): no degradation; time stable to excess histidine and cysteine challenges [3]: more than 18 hours
(pyridylamine)monoacetic acid lysine [PAMA-K]	−1.80	–	–	–	–	–	–	–	–	–	–	–	–	–	–	–	–	–	–	–	–
